According to US20200017496A1 (priority 2017, published 2020):
Where two headings read alike, the source gives them in different places.

Tests used:
Assay type in all cases: cell-based
[1] = test system: Enterobacter aerogenes (EAE) isolates; assay: MIC of compounds alone and combined with antibacterials, broth microdilution (CLSI); settings: for MIC: Klebsiella aerogenes
In short: (§1)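 Log-phase bacteria at a final 5·10^5 CFU/mL in cation-adjusted Mueller-Hinton broth were incubated 16-20 h at 35° C in ambient air with compound alone or with an antibacterial. MIC was the lowest concentration preventing visible growth; combination MIC of the antibacterial was read at each compound concentration.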

[2] = test system: Morganella morganii (MMO) isolates; assay: as above; settings: for MIC ATB in combination: AF1 @ 4 μg/mL; for MIC: Morganella morganii, ATB alone
In short: as §1

[3] = test system: Serratia marcescens (SMA) isolates; assay: as above; settings: for MIC: Serratia marcescens
In short: as §1

[4] = test system: Providencia stuartii (PST) isolates; assay: as above; settings: for MIC ATB in combination: AF1 @ 4 μg/mL; for MIC: Providencia stuartii, ATB alone, read-out: MIC
In short: as §1

[5] = test system: Proteus mirabilis (PMI) isolates; assay: microbe, parasite or virus in culture; settings: for MIC ATB in combination: AF1 @ 4 μg/mL; for MIC: Proteus mirabilis, ATB alone, read-out: MIC
In short: as §1

Question: `CO/N=C(\C(=O)N[C@@H]1C(=O)N2C(C(=O)O)=C(COC(N)=O)CS[C@H]12)c1ccco1` [FUR, Cefuroxime] was tested. Which “MIC ATB in combination” value ([1]; EAE UFR213, AF1 @ 4 μg/mL) did it give?
Answer: The value was 8 µg/mL.

Question: What about the MIC [1] of the same compound?
Answer: Its MIC is over 256 µg/mL.

Question: And the MIC ([1]; strain EAE 49469 (AmpC), ATB alone, read-out: MIC)?
Answer: Its MIC is over 128 µg/mL.

Question: And the MIC ([1]; strain EAE 200261 (TEM-x, AmpC), ATB alone, read-out: MIC)?
Answer: Its MIC is over 256 µg/mL.

Question: And the MIC ([1]; strain EAE UFR201 (TEM-1, SHV-12, CTX-M-15), ATB alone, read-out: MIC)?
Answer: The MIC was over 256 µg/mL.

Question: What about the MIC ([1]; strain EAE UFR202 (TEM-24), ATB alone, read-out: MIC) of the same compound?
Answer: The MIC was over 256 µg/mL.

Question: What about the MIC ([1]; strain EAE UFR213 (TEM-24), ATB alone, read-out: MIC) of the same compound?
Answer: Its MIC is over 256 µg/mL.

Question: What about the “MIC ATB in combination” value ([2]; MMO 200321) of the same compound?
Answer: Its value is 128 µg/mL.

Question: What about the “MIC ATB in combination” value ([2]; MMO UFR144) of the same compound?
Answer: Its value is 32 µg/mL.

Question: And the “MIC ATB in combination” value ([2]; MMO UFR240)?
Answer: Its value is 16 µg/mL.

Question: What about the “MIC ATB in combination” value ([2]; MMO UFR241) of the same compound?
Answer: The value was 32 µg/mL.

Question: What about the “MIC ATB in combination” value ([2]; MMO UFR242) of the same compound?
Answer: Its value is 32 µg/mL.

Question: And the “MIC ATB in combination” value ([2]; MMO UFR243)?
Answer: Its value is 32 µg/mL.

Question: And the “MIC ATB in combination” value ([2]; MMO UFR244)?
Answer: The value was 16 µg/mL.

Question: What about the “MIC ATB in combination” value ([2]; MMO UFR245) of the same compound?
Answer: The value was 32 µg/mL.

Question: And the “MIC ATB in combination” value ([2]; MMO UFR246)?
Answer: Its value is 64 µg/mL.

Question: And the “MIC ATB in combination” value ([2]; MMO UFR247)?
Answer: Its value is 16 µg/mL.

Question: What about the MIC ([2]; strain MMO 200321 (TEM-1, CTX-M-15, OXA-1)) of the same compound?
Answer: The MIC was over 256 µg/mL.

Question: And the MIC ([2]; strain MMO UFR144 (TEM-1, CTX-M-15))?
Answer: The MIC was over 256 µg/mL.

Question: And the MIC ([2]; strain MMO UFR240 (CTX-M-9))?
Answer: The MIC was over 256 µg/mL.

Question: And the MIC ([2]; strain MMO UFR241 (TEM-1, CTX-M-15))?
Answer: The MIC was over 256 µg/mL.

Question: And the MIC ([2]; strain MMO UFR242 (TEM-52))?
Answer: Its MIC is over 256 µg/mL.

Question: What about the MIC ([2]; strain MMO UFR243 (DHA-1), read-out: MIC) of the same compound?
Answer: The MIC was 128 µg/mL.

Question: What about the MIC ([2]; strain MMO UFR244 (DHA-1), read-out: MIC) of the same compound?
Answer: Its MIC is 64 µg/mL.

Question: What about the MIC ([2]; strain MMO UFR245 (DHA-1), read-out: MIC) of the same compound?
Answer: Its MIC is 128 µg/mL.

Question: What about the MIC ([2]; strain MMO UFR246 (DHA-1), read-out: MIC) of the same compound?
Answer: The MIC was 128 µg/mL.

Question: And the MIC ([2]; strain MMO UFR247 (DHA-1), read-out: MIC)?
Answer: The MIC was over 256 µg/mL.

Question: And the “MIC ATB in combination” value ([3]; SMA UFR30, AF1 @ 4 μg/mL)?
Answer: Its value is 64 µg/mL.

Question: And the “MIC ATB in combination” value ([3]; SMA UFR134, AF1 @ 4 μg/mL)?
Answer: The value was 64 µg/mL.

Question: And the “MIC ATB in combination” value ([3]; SMA UFR135, AF1 @ 4 μg/mL)?
Answer: Its value is over 128 µg/mL.

Question: What about the “MIC ATB in combination” value ([3]; SMA UFR136, AF1 @ 4 μg/mL) of the same compound?
Answer: The value was over 128 µg/mL.

Question: What about the “MIC ATB in combination” value ([3]; SMA UFR137, AF1 @ 4 μg/mL) of the same compound?
Answer: The value was 32 µg/mL.

Question: What about the “MIC ATB in combination” value ([3]; SMA UFR138, AF1 @ 4 μg/mL) of the same compound?
Answer: The value was 64 µg/mL.

Question: And the “MIC ATB in combination” value ([3]; SMA UFR139, AF1 @ 4 μg/mL)?
Answer: The value was 64 µg/mL.

Question: And the “MIC ATB in combination” value ([3]; SMA UFR141, AF1 @ 4 μg/mL)?
Answer: Its value is 128 µg/mL.

Question: And the “MIC ATB in combination” value ([3]; SMA UFR142, AF1 @ 4 μg/mL)?
Answer: The value was 64 µg/mL.

Question: What about the “MIC ATB in combination” value ([3]; SMA UFR143, AF1 @ 4 μg/mL) of the same compound?
Answer: The value was 32 µg/mL.

Question: What about the “MIC ATB in combination” value ([3]; SMA UFR239, AF1 @ 4 μg/mL) of the same compound?
Answer: Its value is over 128 µg/mL.

Question: And the MIC [3]?
Answer: Its MIC is over 256 µg/mL.

Question: And the MIC ([3]; ATB alone, strain SMA UFR238 (OXA-48), read-out: MIC)?
Answer: Its MIC is over 256 µg/mL.

Question: What about the MIC ([3]; strain SMA UFR30 (OXA-405), ATB alone, read-out: MIC) of the same compound?
Answer: The MIC was over 256 µg/mL.

Question: What about the MIC ([3]; strain SMA UFR134 (TEM-1, BES-1), ATB alone, read-out: MIC) of the same compound?
Answer: Its MIC is over 256 µg/mL.

Question: What about the MIC ([3]; strain SMA UFR137 (SME-1), ATB alone, read-out: MIC) of the same compound?
Answer: The MIC was 256 µg/mL.

Question: And the MIC ([3]; strain SMA UFR138 (SME-1), ATB alone, read-out: MIC)?
Answer: Its MIC is 256 µg/mL.

Question: What about the MIC ([3]; strain SMA UFR139 (SME-2), ATB alone, read-out: MIC) of the same compound?
Answer: Its MIC is over 256 µg/mL.

Question: And the MIC ([3]; strain SMA UFR141 (OXA-48), ATB alone, read-out: MIC)?
Answer: The MIC was over 256 µg/mL.

Question: And the MIC ([3]; strain SMA UFR142 (OXA-48), ATB alone, read-out: MIC)?
Answer: The MIC was over 256 µg/mL.

Question: And the MIC ([3]; strain SMA UFR143 (CTX-M-15, OXA-1, OXA-48), ATB alone, read-out: MIC)?
Answer: The MIC was over 256 µg/mL.

Question: What about the MIC ([3]; strain SMA UFR239 (ESAC), ATB alone, read-out: MIC) of the same compound?
Answer: The MIC was 256 µg/mL.

Question: What about the “MIC ATB in combination” value ([3]; strain SMA UFR238, antibacterial combined with AF1 @ 4 μg/mL) of the same compound?
Answer: The value was 64 µg/mL.

Question: What about the “MIC ATB in combination” value ([4]; PST UFR94) of the same compound?
Answer: Its value is 8 µg/mL.

Question: What about the “MIC ATB in combination” value ([4]; PST UFR95) of the same compound?
Answer: Its value is 32 µg/mL.

Question: What about the “MIC ATB in combination” value ([4]; PST UFR235) of the same compound?
Answer: Its value is 8 µg/mL.

Question: And the MIC ([4]; strain PST UFR94 (CTX-M-14))?
Answer: Its MIC is over 256 µg/mL.

Question: And the MIC ([4]; strain PST UFR95 (TEM-24))?
Answer: Its MIC is 128 µg/mL.

Question: What about the MIC ([4]; strain PST UFR235 (VEB-1)) of the same compound?
Answer: Its MIC is 256 µg/mL.

Question: What about the “MIC ATB in combination” value ([5]; PMI UFR82) of the same compound?
Answer: Its value is 4 µg/mL.

Question: And the “MIC ATB in combination” value ([5]; PMI UFR120)?
Answer: Its value is 1 µg/mL.

Question: And the “MIC ATB in combination” value ([5]; PMI UFR121)?
Answer: The value was 2 µg/mL.

Question: What about the “MIC ATB in combination” value ([5]; PMI UFR122) of the same compound?
Answer: Its value is 1 µg/mL.

Question: What about the “MIC ATB in combination” value ([5]; PMI UFR123) of the same compound?
Answer: Its value is 1 µg/mL.

Question: What about the “MIC ATB in combination” value ([5]; PMI UFR124) of the same compound?
Answer: The value was 1 µg/mL.

Question: What about the “MIC ATB in combination” value ([5]; PMI UFR125) of the same compound?
Answer: Its value is 1 µg/mL.

Question: And the “MIC ATB in combination” value ([5]; PMI UFR126)?
Answer: The value was 1 µg/mL.

Question: What about the “MIC ATB in combination” value ([5]; PMI UFR127) of the same compound?
Answer: Its value is 1 µg/mL.

Question: What about the “MIC ATB in combination” value ([5]; PMI UFR129) of the same compound?
Answer: Its value is 4 µg/mL.

Question: And the “MIC ATB in combination” value ([5]; PMI UFR130)?
Answer: The value was 4 µg/mL.

Question: And the “MIC ATB in combination” value ([5]; PMI UFR237)?
Answer: The value was 4 µg/mL.

Question: What about the MIC ([5]; strain PMI UFR82 (CMY-2)) of the same compound?
Answer: Its MIC is 16 µg/mL.

Question: What about the MIC ([5]; strain PMI UFR120 (TEM-1, SHV-11, CTX-M-14)) of the same compound?
Answer: Its MIC is over 256 µg/mL.

Question: What about the MIC ([5]; strain PMI UFR121 (TEM-1, TEM-52)) of the same compound?
Answer: Its MIC is over 256 µg/mL.

Question: And the MIC ([5]; strain PMI UFR122 (TEM-1, CTX-M-15))?
Answer: The MIC was over 256 µg/mL.

Question: What about the MIC ([5]; strain PMI UFR123 (CTX-M-1)) of the same compound?
Answer: Its MIC is over 256 µg/mL.

Question: And the MIC ([5]; strain PMI UFR124 (CTX-M-2))?
Answer: The MIC was over 256 µg/mL.

Question: And the MIC ([5]; strain PMI UFR125 (CTX-M-71))?
Answer: The MIC was over 256 µg/mL.

Question: What about the MIC ([5]; strain PMI UFR126 (TEM-2, PER-1)) of the same compound?
Answer: The MIC was over 256 µg/mL.

Question: And the MIC ([5]; strain PMI UFR127 (VEB-1))?
Answer: The MIC was over 256 µg/mL.

Question: And the MIC ([5]; strain PMI UFR129 (TEM-1, VEB-6))?
Answer: The MIC was over 256 µg/mL.

Question: And the MIC ([5]; strain PMI UFR130 (CMY-2))?
Answer: The MIC was 8 µg/mL.

Question: And the MIC ([5]; strain PMI UFR237 (VEB-6))?
Answer: The MIC was over 256 µg/mL.
